Measurements from patent US6503952B2, “Triple antimicrobial composition” (The Trustees of Columbia University in the City of New York, priority 1995, dated 2003).

How the values were obtained:
Staphylococcus aureus [1] = assay: Colony counts with CHX and PCMX (in 5% isopropanol) in the presence of blood; format: cell-based; details: Table 11: in 5% isopropanol, control 3 × 10^6
Description: […] After one minute, a 50 microliter aliquot from each sample was diluted to a volume of 10 ml with LTSB drug inactivating medium (5% Tween 80, 2% lecithin, 0.6% sodium oleate, 0.5% sodium thiosulfate, 0.1% protease peptone and 0.1% tryptone), and then 0.5 ml of the diluted culture was plated on trypticase soy agar plates. The plates were incubated at 37° C. for 24 hours, and then colony counts per milliliter of the original 1 ml antimicrobial containing culture were determined.

Staphylococcus aureus [2] = assay: Rate of kill: colony counts after one minute exposure of Staphylococcus aureus in TSB broth with 20% serum; format: cell-based; details: for CFU/mL: Table 15: single agent, control 2.0 × 10^7
Description: To produce each sample, 0.1 ml of a ten-fold concentrated antimicrobial solution was added to 0.9 ml of TSB broth containing 20% serum and 107 colony forming units (CFU) of Staphylococcus aureus. After one minute, a 50 microliter aliquot from each sample was diluted to a volume of 10 ml with LTSB drug inactivating medium (5% Tween 80, 2% lecithin, 0.6% sodium oleate, 0.5% sodium thiosulfate, 0.1% protease peptone and 0.1% tryptone), and then 0.5 ml of the diluted culture was plated on trypticase soy agar plates. The plates were incubated at 37° C. for 24 hours, and then colony counts per milliliter of the original 1 ml antimicrobial containing culture were determined.
Using the same methods set forth in example section 5, above, the rate of kill of compositions comprising PHMB, PCMX, BZK and PXE were tested. […] Synergy was also observed among 0.1% PXE+0.05% PHMB+0.05% PCMX.

With `[H]/N=C(\N/C(=N/[H])NCCCCCCNC(=N)NC(=N)Nc1ccc(Cl)cc1)Nc1ccc(Cl)cc1` [1% CHX, chlorhexidine] the CFU/ml (Staphylococcus aureus [1]) was 1 × 10^4 CFU/ml.

For `[H]/N=C(\N/C(=N/[H])NCCCCCCNC(=N)NC(=N)Nc1ccc(Cl)cc1)Nc1ccc(Cl)cc1` [.5% CHX, chlorhexidine], the CFU/ml (Staphylococcus aureus [1]) was 1 × 10^5 CFU/ml.

benzalkonium chloride [BZK] was tested, and the CFU/mL (Staphylococcus aureus [2]; concentration 0.02%) was 2.0 × 10^7 CFU/mL.

Work on parachlorometaxylenol [.5% PCMX] yielded a CFU/ml (Staphylococcus aureus [1]) of 0 CFU/ml.

With parachlorometaxylenol [.25% PCMX] the CFU/ml (Staphylococcus aureus [1]) was 1.4 × 10^4 CFU/ml.

parachlorometaxylenol [.125% PCMX] was tested, and the CFU/ml (Staphylococcus aureus [1]) was 1 × 10^6 CFU/ml.

parachlorometaxylenol [PCMX] was tested, and the “decrease in the number of CFU relative to control (factor / fold)” value (Staphylococcus aureus [2]; 2.5% ISOPR samples, relative to the control named in the text (A1, A2, A4 or the no-antimicrobial control)) was “ten”, the CFU/mL (Staphylococcus aureus [2]; concentration 0.05%) was 5.0 × 10^6 CFU/mL and the CFU/mL (Staphylococcus aureus [2]; concentration 0.1%) was 1.6 × 10^3 CFU/mL.

For polyhexamethylene biguanide [PHMB], the CFU/mL (Staphylococcus aureus [2]; concentration 0.025%) was 5.0 × 10^6 CFU/mL, the CFU/mL (Staphylococcus aureus [2]; concentration 0.05%) was 2.0 × 10^6 CFU/mL and the CFU/mL (Staphylococcus aureus [2]; concentration 0.1%) was 4.0 × 10^6 CFU/mL.
